{"source": "patent US20240409532A1", "about": "“BIPHENYL SULFONAMIDES AS DUAL ANGIOTENSIN ENDOTHELIN RECEPTOR ANTAGONISTS” (Chongqing Hongyuantang Medicine Co., Ltd., priority 2023, published 2024)"}
{"molecular_target": "T1, ETA receptor (Rattus norvegicus, UniProt P26684)", "T1 construct": "evaluated in isolated rat aortic ring; from tissue; host or cells: isolated rat aortic ring", "T1 sequence (P26684 21-426)": "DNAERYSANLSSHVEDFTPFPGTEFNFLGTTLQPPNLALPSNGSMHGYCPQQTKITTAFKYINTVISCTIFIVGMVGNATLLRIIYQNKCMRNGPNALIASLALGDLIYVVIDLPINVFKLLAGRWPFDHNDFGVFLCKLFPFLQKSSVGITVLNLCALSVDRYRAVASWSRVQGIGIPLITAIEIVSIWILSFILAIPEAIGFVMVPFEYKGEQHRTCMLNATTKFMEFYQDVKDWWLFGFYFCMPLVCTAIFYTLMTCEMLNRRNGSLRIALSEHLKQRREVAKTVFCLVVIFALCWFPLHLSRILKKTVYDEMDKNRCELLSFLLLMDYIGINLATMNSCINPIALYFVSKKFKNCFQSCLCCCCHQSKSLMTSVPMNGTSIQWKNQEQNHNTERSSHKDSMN", "experiment": "In vitro evaluation of inhibitory activity against ETA receptor (isolated rat aortic ring, literature procedure)", "format": "biochemical", "conditions": "telmisartan as control", "method": "The biological activity of compounds was evaluated in isolated rat aortic ring and in systemic arterial pressure (SAP) of anesthetized rat experiments using the literature procedures in Chinese Pharmacological Bulletin 2008, 24 (11): 1422-1426.\nTelmisartan, as an AT1 receptor antagonist approved for marketing by the US FDA in 1998, was used as a control to evaluate the inhibitory activity of AT1 and ETA receptors.", "units": {"Ki": "nM"}}
{"compound": "CCOCc1cc(Cn2c(C)nc3c(C)cc(-c4nc5ccccc5n4C)cc32)ccc1-c1ccccc1S(=O)(=O)Nc1noc(C)c1C", "note": "[Compound 1-4]", "Ki": "> 102"}
{"compound": "CCOCc1cc(Cn2c(CC)nc3c(C)cc(-c4nc5ccccc5n4C)cc32)ccc1-c1ccccc1S(=O)(=O)Nc1noc(C)c1C", "note": "[Compound 1-7, N-(4,5-dimethylisoxazol-3-yl)-2′-(ethoxymethyl)-4′-((2′-ethyl-1,7′-dimethyl-1H,3′H-[2,5′-bibenzo[d]imidazol]-3′-yl)methyl)-[1,1′-biphenyl]-2-sulfonamide]", "Ki": "13.2 ± 3.3"}
{"compound": "CCCc1nc2c(C)cc(-c3nc4ccccc4n3C)cc2n1Cc1ccc(-c2ccccc2S(=O)(=O)Nc2noc(C)c2C)c(COCC)c1", "note": "[Compound 1-10, 4′-((1,7′-dimethyl-2′-propyl-1H,3′H-[2,5′-bibenzo[d]imidazol]-3′-yl)methyl)-N-(4,5-dimethylisoxazol-3-yl)-2′-(ethoxymethyl)-[1,1′-biphenyl]-2-sulfonamide]", "Ki": "6.8 ± 1.8"}
{"compound": "CCCCc1nc2c(C)cc(-c3nc4ccccc4n3C)cc2n1Cc1ccc(-c2ccccc2S(=O)(=O)Nc2noc(C)c2C)c(COCC)c1", "note": "[Compound 1-13, 4′-((2′-butyl-1,7′-dimethyl-1H,3′H-[2,5′-bibenzo[d]imidazol]-3′-yl)methyl)-N-(4,5-dimethylisoxazol-3-yl)-2′-(ethoxymethyl)-[1,1′-biphenyl]-2-sulfonamide]", "Ki": "7.2 ± 2.1"}
{"compound": "CCCc1nc2c(C)cc(-c3nc4ccccc4n3C)cc2n1Cc1ccc(-c2ccccc2S(=O)(=O)Nc2onc(C)c2C)c(COCC)c1", "note": "[Compound 2-3, 4′-((1,7′-dimethyl-2′-propyl-1H,3′H-[2,5′-bibenzo[d]imidazol]-3′-yl)methyl)-N-(3,4-dimethylisoxazol-5-yl)-2′-(ethoxymethyl)-[1,1′-biphenyl]-2-sulfonamide]", "Ki": "8.8 ± 2.2"}
{"compound": "CCCCc1nc2c(C)cc(-c3nc4ccccc4n3C)cc2n1Cc1ccc(-c2ccccc2S(=O)(=O)Nc2onc(C)c2C)c(COCC)c1", "note": "[Compound 2-5, 4′-((2′-butyl-1,7′-dimethyl-1H,3′H-[2,5′-bibenzo[d]imidazol]-3′-yl)methyl)-N-(3,4-dimethylisoxazol-5-yl)-2′-(ethoxymethyl)-[1,1′-biphenyl]-2-sulfonamide]", "Ki": "9.2 ± 2.3"}
{"compound": "CCCc1nc2c(C)cc(-c3nc4ccccc4n3C)cc2n1Cc1ccc(-c2ccccc2C(=O)O)cc1", "note": "[Telmisartan, reference compound]", "Ki": "> 103"}
